Each structure is given as a SMILES string.

In one assay the test system is GDF8 signaling (p-SMAD-3 (Ser423/425)). Description: AlphaScreen SureFire SMAD3 (p-Ser423/425) assay, GDF8-stimulated cells (GDF pSMAD). It counts as cell-based. The settings on record: Mus musculus, MPC-11, GDF8-stimulated pSMAD3, MPC11; tested as the salt form given; read-out: GDF pSMAD (MPC11) (μM), inhibition of GDF8 signaling.
Consider `Nc1ncnc2ccc(-c3cccnc3-c3ccc4occc4c3)cc12` [compound 1083], for which the IC50 is 0.309 µM. On to `Cc1cc(-c2ncccc2-c2ccc3ncnc(N)c3c2)ccc1F` [compound 1021, 6-(2-(4-fluoro-3-methylphenyl)pyridin-3-yl)quinazolin-4-amine], for which the IC50 came to 0.175 µM. Regarding `Cc1c(F)cc(C(F)F)cc1-c1ncccc1-c1ccc2ncnc(N)c2c1` [compound 1034, 6-(2-(5-(difluoromethyl)-3-fluoro-2-methylphenyl)pyridin-3-yl)quinazolin-4-amine], the IC50 turned out to be 0.342 µM. For `Cc1cc(-c2ncccc2-c2ccc3ncnn3c2)c(C)cc1F` [compound 1064], the IC50 is 0.804 µM. Still for that read-out and setting: to `COc1cnc(-c2ccc(F)c(Cl)c2)c(-c2ccc3ncnc(N)c3c2)c1` [compound 992, 6-(2-(3-chloro-4-fluorophenyl)-5-methoxypyridin-3-yl)quinazolin-4-amine] belongs 1.86 µM.

Staying with this assay, now noted: Mus musculus, MPC-11, MPC11; GDF8-stimulated; p-SMAD3 AlphaScreen; read-out: GDF pSMAD (MPC11) (inhibition of GDF8 signaling).
`Cc1cccc(-c2ncccc2-c2ccc3ncn(CCCN4CCN(C)CC4)c3c2)c1` [compound 251, 1-(3-(4-Methylpiperazin-1-yl)propyl)-6-(2-m-tolylpyridin-3-yl)-1H-benzo[d]imidazole]: the IC50 stood at 17.8 µM.

`Nc1cnc(-c2cccc(C3CC3)c2)c(-c2ccc3ncsc3c2)c1` [Compound 19, 5-(Benzo[d]thiazol-6-yl)-6-(3-cyclopropylphenyl)pyridin-3-amine]: the IC50 was found to be 0.083 µM. The same measure, in the same setting: for `Cc1cc(-c2ncccc2-c2ccc3nccnc3n2)ccc1F` [compound 738, 6-(2-(4-Fluoro-3-methylphenyl)pyridin-3-yl)pyrido[2,3-b]pyrazine] the value was 1.38 µM; for `Fc1ccc(-c2ncccc2-c2ccc3ncccc3n2)cc1C1CC1` [compound 216, 2-(2-(3-cyclopropyl-4-fluorophenyl)pyridin-3-yl)-1,5-naphthyridine], 0.737 µM; for `Cc1cc(-c2ncccc2-c2ccc3ncc(C(=O)NCCN4CCCC4)n3c2)ccc1F` [compound 610, 6-(2-(4-Fluoro-3-methylphenyl)pyridin-3-yl)-N-(2-(pyrrolidin-1-yl)ethyl)imidazo[1,2-a]pyridine-3-carboxamide], 0.648 µM. On to `Cc1c(F)cccc1-c1ncccc1-c1ccc2ncnc(N)c2c1` [compound 468, 6-(2-(3-Fluoro-2-methylphenyl)pyridin-3-yl)quinazolin-4-amine], for which the IC50 was 7.82 µM. Same read-out and setting: to `Cc1cc(-c2ncccc2-c2ccc3nc(F)cn3c2)ccc1F` [compound 254, 2-Fluoro-6-(2-(4-fluoro-3-methylphenyl)pyridin-3-yl)imidazo[1,2-a]pyridine] belongs 0.39 µM; to `CC(=O)NCCCNC(=O)c1cnc2ccc(-c3cccnc3-c3ccc(F)c(C)c3)cn12` [compound 816, N-(3-Acetamidopropyl)-6-(2-(4-fluoro-3-methylphenyl)pyridin-3-yl)imidazo[1,2-a]pyridine-3-carboxamide], 1.61 µM; to `CCNC(=O)Nc1cnc(-c2ccc(F)c(C)c2)c(-c2ccc3nccn3c2)c1` [compound 220, 1-Ethyl-3-(6-(4-fluoro-3-methylphenyl)-5-(imidazo[1,2-a]pyridin-6-yl)pyridin-3-yl)urea], 8.62 µM. Same read-out and setting: to `Cc1cc(-c2ncccc2-c2ccc3ncc(C(=O)NCCCN4CCOCC4)n3c2)ccc1F` [compound 609, 6-(2-(4-Fluoro-3-methylphenyl)pyridin-3-yl)-N-(3-morpholinopropyl)imidazo[1,2-a]pyridine-3-carboxamide] belongs 0.319 µM. Still for that read-out and setting: for `COCCOc1cccc(-c2ncccc2-c2ccc3ncnc(N)c3c2)c1` [compound 482, 6-(2-(3-(2-Methoxyethoxy)phenyl)pyridin-3-yl)quinazolin-4-amine] the value was 1.7 µM; for `Cc1cc(-c2ncccc2-c2ccn3ncc(C(=O)NCCCN4CCOCC4)c3c2)ccc1F` [compound 672, 5-(2-(4-Fluoro-3-methylphenyl)pyridin-3-yl)-N-(3-morpholinopropyl)pyrazolo[1,5-a]pyridine-3-carboxamide], 0.273 µM; for `Cc1cc(-c2ncccc2-c2ccc3nccc(N)c3c2)ccc1F` [compound 836, 6-(2-(4-Fluoro-3-methylphenyl)pyridin-3-yl)quinolin-4-amine], 5.94 µM. As for `CC(=O)c1cnc2ccc(-c3cccnc3-c3cccc(C4CC4)c3)cn12` [compound 588, 1-(6-(2-(3-Cyclopropylphenyl)pyridin-3-yl)imidazo[1,2-a]pyridin-3-yl)ethan-1-one], the IC50 was 0.316 µM. Still for that read-out and setting: to `Cc1cccc(-c2ncccc2-c2ccc3c(cnn3C)c2)c1` [Compound 146, 1-Methyl-5-(2-m-tolylpyridin-3-yl)-1H-indazole] belongs 0.621 µM. Turning to `COc1cnc(-c2ccc(F)c(C)c2)c(-c2ccc3[nH]ncc3c2)c1` [Compound 8, 5-(2-(4-Fluoro-3-methylphenyl)-5-methoxypyridin-3-yl)-1H-indazole], the IC50 worked out at 5.35 µM. With `Cc1cc(-c2ncccc2-c2ccc3ncnc(OCCCN(C)C)c3c2)ccc1F` [compound 429, 3-((6-(2-(4-Fluoro-3-methylphenyl)pyridin-3-yl)quinazolin-4-yl)oxy)-N,N-dimethylpropan-1-amine], the IC50 came out at 0.384 µM. Still for that read-out and setting: to `Fc1ccc(-c2ncccc2-c2ccn3nccc3n2)c(F)c1Cl` [compound 965, 5-(2-(3-Chloro-2,4-difluorophenyl)pyridin-3-yl)pyrazolo[1,5-a]pyrimidine] belongs 5.19 µM.

Take `Cn1cnc2ccc(-c3cccnc3-c3cc(Cl)ccc3Cl)cc21` [compound 870, 6-(2-(2,5-Dichlorophenyl)pyridin-3-yl)-1-methyl-1H-benzo[d]imidazole]: the IC50 is 0.557 µM. Same read-out and setting: to `O=C(NCCCN1CCCC1=O)c1cnc2ccc(-c3cccnc3-c3cc(Cl)c(F)cc3F)cn12` [compound 730, 6-(2-(5-Chloro-2,4-difluorophenyl)pyridin-3-yl)-N-(3-(2-oxopyrrolidin-1-yl)propyl)imidazo[1,2-a]pyridine-3-carboxamide] belongs 0.59 µM; to `Cc1cc(-c2ncc(NCc3cnc4c(c3)ncn4C)cc2-c2ccc3ncsc3c2)ccc1F` [compound 335, 5-(Benzo[d]thiazol-6-yl)-6-(4-fluoro-3-methylphenyl)-N-((3-methyl-3H-imidazo[4,5-b]pyridin-6-yl)methyl)pyridin-3-amine], 0.306 µM. As for `c1cc(-c2ncccc2-c2cnc3[nH]ncc3c2)cc(C2CC2)c1` [Compound 152, 5-(2-(3-Cyclopropylphenyl)pyridin-3-yl)-1H-pyrazolo[3,4-b]pyridine], the IC50 was determined as 0.0487 µM.

`Cc1cccc(-c2ncccc2-c2ccc3ncn(C(C)C)c3c2)c1` [compound 47]: the IC50 worked out at 8.23 µM. For `CCCC(=O)Nc1cnc(-c2ccc(F)c(C)c2)c(-c2ccc3ncsc3c2)c1` [compound 316, N-(5-(Benzo[d]thiazol-6-yl)-6-(4-fluoro-3-methylphenyl)pyridin-3-yl)butyramide], the IC50 is 6.39 µM. Consider `Cc1cccc(-c2ncccc2-c2ccc3ncsc3n2)c1` [compound 304, 5-(2-(m-Tolyl)pyridin-3-yl)thiazolo[5,4-b]pyridine], for which the IC50 stood at 0.0853 µM. Still for that read-out and setting: for `Cc1cc(-c2ncccc2-c2ccc3ncc(-c4ccc(S(N)(=O)=O)cc4)n3c2)ccc1F` [compound 281, 4-(6-(2-(4-Fluoro-3-methylphenyl)pyridin-3-yl)imidazo[1,2-a]pyridin-3-yl)benzenesulfonamide] the value was 1.3 µM; for `OCc1cccc(-c2ncccc2-c2ccc3[nH]ncc3c2)c1` [Compound 91, [3-(3-(1H-Indazol-5-yl)pyridin-2-yl)phenyl]methanol], 3.03 µM; for `Nc1ncnc2ccc(-c3cccnc3-c3ccc(F)c(Cl)c3)nc12` [compound 964, 6-(2-(3-Chloro-4-fluorophenyl)pyridin-3-yl)pyrido[3,2-d]pyrimidin-4-amine], 0.232 µM. On to `Cc1cc(-c2ncccc2-c2ccn3ncc(C(=O)O)c3c2)ccc1F` [compound 678, 5-(2-(4-Fluoro-3-methylphenyl)pyridin-3-yl)pyrazolo[1,5-a]pyridine-3-carboxylic acid], for which the IC50 was determined as 2.47 µM.

As to `COc1cc(-c2ncccc2-c2ccc3ncnc(N)c3c2)ccc1F` [compound 474, 6-(2-(4-Fluoro-3-methoxyphenyl)pyridin-3-yl)quinazolin-4-amine], the IC50 was 0.429 µM. The same measure, in the same setting: for `Cc1cc(-c2ncc(NCc3cccc4cnccc34)cc2-c2ccc3ncsc3c2)ccc1F` [compound 337, 5-(Benzo[d]thiazol-6-yl)-6-(4-fluoro-3-methylphenyl)-N-(isoquinolin-5-ylmethyl)pyridin-3-amine] the value was 0.479 µM; for `Cc1cccc(-c2ncc(N)cc2-c2ccc3ncsc3c2)c1` [Compound 20, 5-(Benzo[d]thiazol-6-yl)-6-m-tolylpyridin-3-amine], 0.104 µM; for `Cc1cccc(-c2ncccc2-c2ccc3ncoc3c2)c1` [Compound 181, 6-(2-m-Tolylpyridin-3-yl)benzo[d]oxazole], 0.539 µM.

Turning to `Cc1cc(-c2ncccc2-c2ccc3ncn(CCN4CCN(C)CC4)c3c2)ccc1F` [Compound 37, 6-(2-(4-Fluoro-3-methylphenyl)pyridin-3-yl)-1-(2-(4-methylpiperazin-1-yl)ethyl)-1H-benzo[d]imidazole], the IC50 was determined as 18.1 µM. As to `Cc1cc(-c2ncc(NCc3cccc(N4CCOCC4)c3)cc2-c2ccc3ncsc3c2)ccc1F` [compound 354, 5-(Benzo[d]thiazol-6-yl)-6-(4-fluoro-3-methylphenyl)-N-(3-morpholinobenzyl)pyridin-3-amine], the IC50 was 1.27 µM. Same read-out and setting: to `Cc1cc(-c2ncccc2-c2ccc3ncnc(OCCN4CCCC4)c3c2)ccc1F` [compound 443, 6-(2-(4-Fluoro-3-methylphenyl)pyridin-3-yl)-4-(2-(pyrrolidin-1-yl)ethoxy)quinazoline] belongs 0.429 µM; to `FC(F)(F)c1cccc(-c2ncccc2-c2cnc3[nH]ncc3c2)c1` [Compound 198, 5-(2-(3-(Trifluoromethyl)phenyl)pyridin-3-yl)-1H-pyrazolo[3,4-b]pyridine], 0.44 µM.

Values taken from US10858335B2 (Rigel Pharmaceuticals, Inc., priority 2014, dated 2020).
